Entries after “also recorded” stand apart in the source; their conditions may differ.
Tests used:
[1] = molecular target: α2 receptors; design: method as in PMID 25813897; details: cited from earlier work
[2] = molecular target: T1, potassium hERG channel (Homo sapiens, UniProt Q12809); assay: Radioligand binding assay for K+ channel hERG ([3H]-dofetilide, HEK-293 cells)
T1 construct: host or cells: HEK-293
Experimental: The radioligand binding studies for K^+ and Ca^2+ channels were performed commercially by Eurofins Cerep (Celle l’Evescault, France) using testing procedures described elsewhere [68, 69].

[3] = molecular target: Ca2+ channel (L, verapamil site); assay: Radioligand binding assay for Ca2+ channel ([3H]-D888); design: species or system rat
Experimental: The radioligand binding studies for K^+ and Ca^2+ channels were performed commercially by Eurofins Cerep (Celle l’Evescault, France) using testing procedures described elsewhere. […]

[4] = molecular target: α1 receptors; design: method as in PMID 25813897; details: cited from earlier work
[5] = test system: blood pressure in normotensive rats; design: method as in PMID 25813897; details: doses 5, 1, and 0.5 mg/kg; cited from earlier work
[6] = test system: aconitine-induced arrhythmia in rats; assay: Prophylactic antiarrhythmic activity in aconitine-induced arrhythmia; type: in vivo, rat
[7] = test system: isolated rat heart; assay: Effect on normal ECG of isolated rat heart (Langendorff)
Experimental: Hearts form Wistar rats were isolated and immersed in Chenoweth-Koelle solution (120 mM NaCl; 5 mM KCl; 2.2 mM MgCl2; […]; 2.4 mM CaCl2; 10 mM glucose). Hearts were perfused according to the Langendorff model under a constant pressure of 70 cm H2O (6.87 kPa) with a solution at 37 °C, pH 7.4, constantly oxygenated (O2/CO2, 19:1) using the MyoHEART Langendorff System-900MH (Danish Myo Technology, Hinnerup, Denmark), which simultaneously monitored the ECG. After 20-min stabilization period, the tested compound was administered directly to the nutrient fluid every 15 min at increasing concentrations of […]. The influence on PQ, QTc interval, QRS complex and heart rate (RR) was assessed. The Bazzett’s formula: QTc = QT/√RR was used to calculate QTc.

[8] = molecular target: α1A receptor; design: method as in PMID 25813897; details: antagonist; cited from earlier work
[9] = test system: normal ECG in rats; assay: Effect on normal electrocardiogram in rats; type: in vivo, rat; design: PQ / QRS / QTc / QT / Rate (heart rate): unit not given here; details: 5 mg/kg iv; for QTc: Bazzett's formula
Experimental: To eliminate the influence of the tested derivative on normal electrocardiogram (ECG), the experiment was performed. ECG tests were carried out with Aspel ASCARD apparatus (standard II lead, with the tape speed 50 mm/s and voltage calibration 1 Mv = 1 cm). The ECG was recorded prior and 5, 10, 15 min after iv administration of tested compound. The influence on PQ, QT, QTc interval, QRS complex and heart rate (RR) was defined. The Bazzett’s formula: QTc = QT/√RR was used to calculate QTc.

[10] = test system: calcium chloride-induced arrhythmia in rats; assay: Prophylactic antiarrhythmic activity in calcium chloride-induced arrhythmia; type: in vivo, rat
[11] = molecular target: T2, β1-adrenergic receptors (Rattus norvegicus, UniProt P18090); assay: Radioligand binding assay for β1-adrenergic receptors ([3H]-CGP-12177); details: rat cortex tissue
T2 construct: from tissue; host or cells: rat cortex
Experimental: Radioligand binding assay was performed on tissue rat cortex. […] In order to measure the unspecific binding 1 μM of propranolol was applied. Microplate was covered with a sealing tape, mixed and incubated for 60 minutes at 37 °C. The incubation was terminated by rapid filtration through GF/B filter mate. Ten rapid washes with 200 µL 50 mM Tris buffer (4 °C, pH 7.6) were completed using 96-well FilterMate harvester (PerkinElmer, Boston, MA, USA). The filter mates were dried at 37 °C in forced air fan incubator and then solid scintillator MeltiLex was melted on filter mates at 90 °C for 4 min. […] Data were fitted to a one-site curve-fitting equation with Prism 6 (GraphPad Software, San Diego, CA, USA) and Ki values were estimated from the Cheng−Prusoff equation [51].

[12] = test system: adrenaline-induced arrhythmia in rats; assay: Prophylactic antiarrhythmic activity in adrenaline-induced arrhythmia; type: in vivo, rat; details: for Blocks (%) / Bradycardia (%) / Extrasystoles (%) / Mortality (%): adrenaline 20 μg/kg iv, % occurrence
[13] = test system: post-reperfusion arrhythmia of isolated rat heart; assay: Antiarrhythmic activity in the post-reperfusion model in isolated rat heart
Experimental: Hearts form Wistar rats were isolated and immersed in Chenoweth–Koelle solution (120 mM NaCl; 5 mM KCl; 2.2 mM MgCl2; […]; 2.4 mM CaCl2; 10 mM glucose). Hearts were perfused according to the Langendorff model under a constant pressure of 70 cm H2O (6.87 kPa) with a solution at 37 °C, pH 7.4, constantly oxygenated (O2/CO2, 19:1) using the MyoHEART Langendorff System-900MH (Danish Myo Technology, Hinnerup, Denmark), which monitored the ECG. After 20 min stabilization period, acute myocardial ischemia was induced locally by installing a clamp on the left coronary artery (ischemic period). After 15 min, the clamp was removed, and ECG changes were monitored for 30 min (reperfusion period). The tested compound was added to the perfusion solution 15 min before coronary artery clamping. The point scale described by Bernauer was used to assess the antiarrhythmic activity in this arrhythmia model. The occurrence of a specific type of heart rhythm disturbance during the reperfusion period was scored according to the following scale: • occurrence of less than 10 extrasystoles—1 point; • occurrence of more than 10 extrasystoles—2 points; • presence of ventricular tachycardia—3 points; • presence of fibrillation—4 points.

[14] = molecular target: α1B receptor; design: method as in PMID 25813897; details: antagonist; cited from earlier work
[15] = aconitine 20 μg/kg iv, dose 5 mg/kg iv 15 min before, % occurrence
[16] = 0 min (prior to administration)
[17] = calcium chloride 140 mg/kg iv, dose 5 mg/kg iv 15 min before, % occurrence
[18] = dose 0.03 mg/kg iv 15 min before
[19] = dose 0.06 mg/kg iv 15 min before
[20] = dose 0.125 mg/kg iv 15 min before
[21] = dose 0.25 mg/kg iv 15 min before
[22] = dose 0.5 mg/kg iv 15 min before
[23] = reperfusion, concentration 10^−10 M, % occurrence

T1 sequence (Q12809 whole entry): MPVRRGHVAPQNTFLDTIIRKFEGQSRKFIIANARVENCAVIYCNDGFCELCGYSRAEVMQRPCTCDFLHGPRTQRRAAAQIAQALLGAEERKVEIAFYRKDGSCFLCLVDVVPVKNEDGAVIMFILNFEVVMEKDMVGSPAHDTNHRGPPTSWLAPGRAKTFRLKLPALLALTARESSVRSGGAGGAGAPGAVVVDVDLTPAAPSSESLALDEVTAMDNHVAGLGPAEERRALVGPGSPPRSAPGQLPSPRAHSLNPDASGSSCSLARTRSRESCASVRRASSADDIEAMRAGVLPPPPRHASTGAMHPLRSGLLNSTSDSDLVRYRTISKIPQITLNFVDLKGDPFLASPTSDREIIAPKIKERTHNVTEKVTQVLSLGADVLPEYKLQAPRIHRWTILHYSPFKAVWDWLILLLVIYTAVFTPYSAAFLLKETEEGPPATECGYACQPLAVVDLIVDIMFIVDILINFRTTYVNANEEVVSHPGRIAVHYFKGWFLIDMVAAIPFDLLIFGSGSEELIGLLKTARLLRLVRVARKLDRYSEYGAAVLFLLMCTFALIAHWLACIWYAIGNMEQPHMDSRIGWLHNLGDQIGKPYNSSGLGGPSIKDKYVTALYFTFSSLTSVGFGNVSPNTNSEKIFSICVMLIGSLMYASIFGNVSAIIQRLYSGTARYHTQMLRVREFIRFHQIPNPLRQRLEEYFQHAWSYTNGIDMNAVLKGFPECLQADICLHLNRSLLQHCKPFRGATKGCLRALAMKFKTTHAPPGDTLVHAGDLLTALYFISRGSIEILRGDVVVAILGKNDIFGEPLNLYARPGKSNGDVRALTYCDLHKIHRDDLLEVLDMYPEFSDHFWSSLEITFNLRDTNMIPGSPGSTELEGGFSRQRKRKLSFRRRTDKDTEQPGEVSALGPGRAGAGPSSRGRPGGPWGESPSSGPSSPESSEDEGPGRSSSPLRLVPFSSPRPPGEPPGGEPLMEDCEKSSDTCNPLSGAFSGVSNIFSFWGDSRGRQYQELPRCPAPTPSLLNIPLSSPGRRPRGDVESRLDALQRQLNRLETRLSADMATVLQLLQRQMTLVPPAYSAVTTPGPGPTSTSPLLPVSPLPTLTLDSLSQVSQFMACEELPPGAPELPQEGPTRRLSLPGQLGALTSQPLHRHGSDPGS
T2 sequence (P18090 whole entry): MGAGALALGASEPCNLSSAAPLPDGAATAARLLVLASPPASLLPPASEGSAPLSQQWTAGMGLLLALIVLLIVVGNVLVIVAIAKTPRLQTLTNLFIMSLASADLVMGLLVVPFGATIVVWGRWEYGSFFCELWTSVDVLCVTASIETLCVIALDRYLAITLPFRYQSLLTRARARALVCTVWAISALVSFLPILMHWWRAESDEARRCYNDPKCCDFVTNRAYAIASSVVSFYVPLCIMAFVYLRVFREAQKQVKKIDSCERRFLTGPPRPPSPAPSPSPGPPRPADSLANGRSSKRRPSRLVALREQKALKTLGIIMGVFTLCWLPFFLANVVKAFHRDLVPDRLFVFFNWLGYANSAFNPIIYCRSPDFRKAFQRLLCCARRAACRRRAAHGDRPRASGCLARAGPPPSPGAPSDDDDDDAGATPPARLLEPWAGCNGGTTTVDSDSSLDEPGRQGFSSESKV

SMILES: Cl.O=C1CCCN1CCCCN1CCN(c2ccccc2Cl)CC1 [S-75, 1-(4-(4-(2-chlorophenyl)piperazin-1-yl)butyl)pyrrolidin-2-one hydrochloride]
- pKi α2 receptors [1]: 6.01
- IC50 ([2]; HEK-293 cells, [3H]-dofetilide): 29.3 µM
- affinity toward potassium channel hERG, times lower than terfenadine ([2]; vs terfenadine): 1172 times
- IC50 ([3]; rat cortex tissue, [3H]-D888): 0.757 µM
- affinity for L-type calcium channels, times lower than D-600 ([3]; vs reference D-600): 20 times
- pKi α1 receptors [4]: 7.3
- effect on blood pressure [5]: significantly decreased the blood pressure
- Blocks (%) [6, 15]: 100%
- Bradycardia (%) [6, 15]: 100%
- Extrasystoles (%) [6, 15]: 100%
- Fibrillations (%) [6, 15]: 100%
- Mortality (%) [6, 15]: 100%
- activity in aconitine-induced arrhythmia ([6]; prophylactic, rats): no activity
- prolongation of the PQ interval ([7]; 10^−8 mol/L): 15.1%
- prolongation of the RR interval ([7]; 10^−8 mol/L): 10.5%
- effect on QRS complex ([7]; 10^−10–10^−8 mol/L): not affecting; also recorded: did not affect
- effect on QTc interval ([7]; 10^−10–10^−8 mol/L): not affecting; also recorded: did not affect
- EC50 [8]: 138 ± 21.9 nM
- influence on QRS [9]: no influence
- influence on QT [9]: no influence
- influence on QTc [9]: no influence; also recorded: did not prolong
- PQ [9, 16]: 46.44 ± 1.352
- QRS [9, 16]: 33.78 ± 1.384
- QT [9, 16]: 81.57 ± 1.356
- Rate (heart rate) [9, 16]: 310.8 ± 17.07
- QTc [9, 16]: 182.9 ± 4.805
- PQ ([9]; 5 min): 47.00 ± 1.537
- QRS ([9]; 5 min): 35.56 ± 1.701
- QT ([9]; 5 min): 81.53 ± 1.812
- Rate (heart rate) ([9]; 5 min): 307.9 ± 18.93
- QTc ([9]; 5 min): 192.3 ± 6.176
- PQ ([9]; 10 min): 49.78 ± 1.042
- QRS ([9]; 10 min): 33.89 ± 1.628
- QT ([9]; 10 min): 82.47 ± 2.186
- Rate (heart rate) ([9]; 10 min): 287.8 ± 22.94
- QTc ([9]; 10 min): 189.3 ± 9.543
- PQ ([9]; 15 min): 52.11 ± 2.061
- QRS ([9]; 15 min): 37.22 ± 1.637
- QT ([9]; 15 min): 83.90 ± 1.730
- Rate (heart rate) ([9]; 15 min): 284.0 ± 23.50
- QTc ([9]; 15 min): 190.9 ± 11.46
- decrease of the heart rate ([9]; after 10 min): 7.4%
- decrease of the heart rate ([9]; after 15 min): 8.6%
- prolongation of the PQ interval ([9]; after 15 min): 12.2%
- Blocks (%) [10, 17]: 100%
- Bradycardia (%) [10, 17]: 100%
- Extrasystoles (%) [10, 17]: 100%
- Fibrillations (%) [10, 17]: 66.7%
- Mortality (%) [10, 17]: 83.3%
- activity in calcium chloride-induced arrhythmia ([10]; prophylactic, rats): no activity
- β1 (pKi [nM]) [11]: did not bind
- ED50 ([12]; Rattus norvegicus, prophylactic, iv 15 min before adrenaline 20 μg/kg, Litchfield and Wilcoxon, limits in brackets, read-out: ED50 (a dose producing a 50% inhibition of ventricular contractions)): 0.05 mg/kg
- Blocks (%) [12, 18]: 100%
- Bradycardia (%) [12, 18]: 100%
- Extrasystoles (%) [12, 18]: 100%
- Mortality (%) [12, 18]: 33.3%
- Blocks (%) [12, 19]: 50%
- Bradycardia (%) [12, 19]: 100%
- Extrasystoles (%) [12, 19]: 83.3%
- Mortality (%) [12, 19]: 0%
- Blocks (%) [12, 20]: 33.3%
- Bradycardia (%) [12, 20]: 33.3%
- Extrasystoles (%) [12, 20]: 66.7%
- Mortality (%) [12, 20]: 50%
- Blocks (%) [12, 21]: 50%
- Bradycardia (%) [12, 21]: 16.7%
- Extrasystoles (%) [12, 21]: 66.7%
- Mortality (%) [12, 21]: 0%
- Blocks (%) [12, 22]: 33.3%
- Bradycardia (%) [12, 22]: 0%
- Extrasystoles (%) [12, 22]: 16.7%
- Mortality (%) [12, 22]: 0%
- activity in the post-reperfusion model of arrhythmia [13]: did not show the activity
- Extrasystoles (%) [13, 23]: 100%
- Fibrillations (%) [13, 23]: 100%
- Tachycardia (%) [13, 23]: 100%
- EC50 [14]: 2.53 ± 0.5 nM
